Reference: patent publication US20230085307A1, “PYRIDAZINONE COMPOUND AND HERBICIDE” (NISSAN CHEMICAL CORPORATION, priority 2019, published 2023)

Legend:
Chinese sprangletop = experiment: Test Example 3: herbicidal effect by foliage application, Wagner pot (Table 18, symbol D); format: in vivo, chinese sprangletop (Leptochloa chinensis)
In short: (§1)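 Plants were sown in alluvial soil held under 0.1–0.5 cm standing water and grown 14 days in a greenhouse at 25–30 °C. An emulsifiable formulation, water-diluted to the set dose, was then sprayed onto the foliage, and effects were scored three weeks later using previously defined criteria.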

chickweed [1] = experiment: Test Example 4: herbicidal effect by soil treatment (Table 19, symbol P); format: in vivo, common chickweed (Stellaria media); conditions: 320 g/ha
In short: (§2)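 Herbicidal effect was rated 3 weeks after treatment, using the scoring criteria of an earlier test. The compound, formulated as an emulsion and diluted in water to a set herbicide amount, had been sprayed uniformly on soil over freshly sown seeds. Growth took place in a greenhouse at 25° C. to 30° C.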

wild oat [2] = experiment: Test Example 5: herbicidal effect by foliage application, plastic box (Table 20, symbol I); format: in vivo, wild oat (Avena fatua); conditions: foliage application, 320 g/ha
In short: (§3)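 Foliar spray test: emulsion formulation diluted in water to a set application rate, sprayed onto 14-day-old plants raised in diluvial soil at 25° C to 30° C under glass. Both herbicidal effect and crop effect rated visually three weeks later.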

Italian ryegrass [3] = experiment: Test Example 4: herbicidal effect by soil treatment (Table 19, symbol K); format: in vivo, Italian ryegrass (Lolium multiflorum)
In short: as §2

late watergrass = experiment: Test Example 2: herbicidal activity, application during weed generation under submerged conditions (Table 17, symbol A); format: in vivo, late watergrass (Echinochloa oryzicola); conditions: AAH 320 g/ha; application during weed generation, submerged conditions
In short: (§4)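 Steps: fill Wagner pots with alluvial soil; add water to give 4 cm depth; sow the species mixed; grow under glass at 25–30° C.; at 1–2 leaves apply water-diluted emulsion formulation to the water surface at a fixed herbicide amount; score after 3 weeks.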

barnyard grass [4] = experiment: Test Example 4: herbicidal effect by soil treatment (Table 19, symbol H); format: in vivo, barnyard grass (Echinochloa crus-galli)
In short: as §2

windgrass [5] = experiment: Test Example 4: herbicidal effect by soil treatment (Table 19, symbol L); format: in vivo, windgrass (Apera spica-venti)
In short: as §2

wild oat [6] = experiment: Test Example 4: herbicidal effect by soil treatment (Table 19, symbol I); format: in vivo, wild oat (Avena fatua)
In short: as §2

persian speedwell [7] = experiment: Test Example 4: herbicidal effect by soil treatment (Table 19, symbol R); format: in vivo, Persian speedwell (Veronica persica)
In short: as §2

lambsquarters [8] = experiment: Test Example 5: herbicidal effect by foliage application, plastic box (Table 20, symbol O); format: in vivo, lambsquarters (Chenopodium album); conditions: foliage application, 320 g/ha
In short: as §3

barnyard grass [9] = experiment: Test Example 3: herbicidal effect by foliage application, Wagner pot (Table 18, symbol H); format: in vivo, barnyard grass (Echinochloa crus-galli)
In short: as §1

lambsquarters [10] = experiment: Test Example 4: herbicidal effect by soil treatment (Table 19, symbol O); format: in vivo, lambsquarters (Chenopodium album)
In short: as §2

Japanese bulrush = experiment: Test Example 2: herbicidal activity, application during weed generation under submerged conditions (Table 17, symbol B); format: in vivo, Japanese bulrush (Schoenoplectus juncoides); conditions: AAH 320 g/ha; application during weed generation, submerged conditions
In short: as §4

Italian ryegrass [11] = experiment: Test Example 5: herbicidal effect by foliage application, plastic box (Table 20, symbol K); format: in vivo, Italian ryegrass (Lolium multiflorum); conditions: foliage application, 320 g/ha
In short: as §3

velvetleaf [12] = experiment: Test Example 5: herbicidal effect by foliage application, plastic box (Table 20, symbol M); format: in vivo, velvetleaf (Abutilon theophrasti); conditions: foliage application, 320 g/ha
In short: as §3

green foxtail [13] = experiment: Test Example 5: herbicidal effect by foliage application, plastic box (Table 20, symbol G); format: in vivo, green foxtail (Setaria viridis); conditions: foliage application, 320 g/ha
In short: as §3

green foxtail [14] = experiment: Test Example 4: herbicidal effect by soil treatment (Table 19, symbol G); format: in vivo, green foxtail (Setaria viridis)
In short: as §2

oval-leafed pondweed = experiment: Test Example 2: herbicidal activity, application during weed generation under submerged conditions (Table 17, symbol C); format: in vivo, oval-leafed pondweed (Monochoria vaginalis); conditions: AAH 320 g/ha; application during weed generation, submerged conditions
In short: as §4

blackgrass [15] = experiment: Test Example 4: herbicidal effect by soil treatment (Table 19, symbol J); format: in vivo, blackgrass (Alopecurus myosuroides)
In short: as §2

persian speedwell [16] = experiment: Test Example 5: herbicidal effect by foliage application, plastic box (Table 20, symbol R); format: in vivo, Persian speedwell (Veronica persica); conditions: foliage application, 320 g/ha
In short: as §3

blackgrass [17] = experiment: Test Example 5: herbicidal effect by foliage application, plastic box (Table 20, symbol J); format: in vivo, blackgrass (Alopecurus myosuroides); conditions: foliage application, 320 g/ha
In short: as §3

velvetleaf [18] = experiment: Test Example 4: herbicidal effect by soil treatment (Table 19, symbol M); format: in vivo, velvetleaf (Abutilon theophrasti)
In short: as §2

redroot pigweed [19] = experiment: Test Example 4: herbicidal effect by soil treatment (Table 19, symbol N); format: in vivo, redroot pigweed (Amaranthus retroflexus)
In short: as §2

windgrass [20] = experiment: Test Example 5: herbicidal effect by foliage application, plastic box (Table 20, symbol L); format: in vivo, windgrass (Apera spica-venti); conditions: foliage application, 320 g/ha
In short: as §3

southern crabgrass [21] = experiment: Test Example 5: herbicidal effect by foliage application, plastic box (Table 20, symbol F); format: in vivo, southern crabgrass (Digitaria ciliaris); conditions: foliage application, 320 g/ha
In short: as §3

rice flat sedge = experiment: Test Example 3: herbicidal effect by foliage application, Wagner pot (Table 18, symbol E); format: in vivo, rice flat sedge (Cyperus iria)
In short: as §1

southern crabgrass [22] = experiment: Test Example 4: herbicidal effect by soil treatment (Table 19, symbol F); format: in vivo, southern crabgrass (Digitaria ciliaris)
In short: as §2

barnyard grass [23] = experiment: Test Example 5: herbicidal effect by foliage application, plastic box (Table 20, symbol H); format: in vivo, barnyard grass (Echinochloa crus-galli); conditions: foliage application, 320 g/ha
In short: as §3

redroot pigweed [24] = experiment: Test Example 5: herbicidal effect by foliage application, plastic box (Table 20, symbol N); format: in vivo, redroot pigweed (Amaranthus retroflexus); conditions: foliage application, 320 g/ha, evaluated three weeks after application
In short: as §3

chickweed [25] = experiment: Test Example 5: herbicidal effect by foliage application, plastic box (Table 20, symbol P); format: in vivo, common chickweed (Stellaria media); conditions: foliage application, 320 g/ha, evaluated three weeks after application
In short: as §3

[26] = amount of applied herbicide 320 g/ha
[27] = evaluated three weeks after application

SMILES: COCCOCOc1c(C)nn(C)c(=O)c1-c1c(-c2ccc(C(C)C)cc2)sc2ccc(F)cc12 [2-015]
- herbicidal effect on D (Chinese sprangletop), rating 0-5 (Chinese sprangletop; 320 g/ha): 5 (Herbicidal rate of 90% or more (almost completely withered))
- herbicidal effect rating, P: chickweed (chickweed [1]): 0 (Herbicidal rate of 5% or less (almost no effect))
- effect on wild oat (I) (wild oat [2]; 3 weeks after application): 0 (Herbicidal rate of 5% or less (almost no effect))
- herbicidal effect rating, K: Italian ryegrass (Italian ryegrass [3]; 320 g/ha): 0 (Herbicidal rate of 5% or less (almost no effect))
- herbicidal effect rating, A: late watergrass (late watergrass): 4 (Herbicidal rate of 70% or more and less than 90%)
- herbicidal effect rating, H: barnyard grass (barnyard grass [4]; 320 g/ha): 0 (Herbicidal rate of 5% or less (almost no effect))
- herbicidal effect rating, L: windgrass (windgrass [5]; 320 g/ha): 0 (Herbicidal rate of 5% or less (almost no effect))
- herbicidal effect rating, I: wild oat (wild oat [6]; 320 g/ha): 0 (Herbicidal rate of 5% or less (almost no effect))
- herbicidal effect rating, R: persian speedwell (persian speedwell [7]; 320 g/ha): 4 (Herbicidal rate of 70% or more and less than 90%)
- effect on lambsquarters (O) (lambsquarters [8]; 3 weeks after application): 5 (Herbicidal rate of 90% or more (almost completely withered))
- herbicidal effect on H (barnyard grass), rating 0-5 (barnyard grass [9]; 320 g/ha): 5 (Herbicidal rate of 90% or more (almost completely withered))
- herbicidal effect rating, O: lambsquarters (lambsquarters [10]; 320 g/ha): 2 (Herbicidal rate of 20% or more and less than 40%)
- herbicidal effect rating, B: Japanese bulrush (Japanese bulrush): 0 (Herbicidal rate of 5% or less (almost no effect))
- effect on Italian ryegrass (K) (Italian ryegrass [11]; 3 weeks after application): 0 (Herbicidal rate of 5% or less (almost no effect))
- effect on velvetleaf (M) (velvetleaf [12]; 3 weeks after application): 5 (Herbicidal rate of 90% or more (almost completely withered))
- effect on green foxtail (G) (green foxtail [13]; 3 weeks after application): 0 (Herbicidal rate of 5% or less (almost no effect))
- herbicidal effect rating, G: green foxtail (green foxtail [14]; 320 g/ha): 0 (Herbicidal rate of 5% or less (almost no effect))
- herbicidal effect rating, C: oval-leafed pondweed (oval-leafed pondweed): 0 (Herbicidal rate of 5% or less (almost no effect))
- herbicidal effect rating, J: blackgrass (blackgrass [15]; 320 g/ha): 0 (Herbicidal rate of 5% or less (almost no effect))
- effect on persian speedwell (R) (persian speedwell [16]; 3 weeks after application): 5 (Herbicidal rate of 90% or more (almost completely withered))
- effect on blackgrass (J) (blackgrass [17]; 3 weeks after application): 0 (Herbicidal rate of 5% or less (almost no effect))
- herbicidal effect rating, M: velvetleaf (velvetleaf [18]; 320 g/ha): 0 (Herbicidal rate of 5% or less (almost no effect))
- herbicidal effect rating, N: redroot pigweed (redroot pigweed [19]; 320 g/ha): 5 (Herbicidal rate of 90% or more (almost completely withered))
- effect on windgrass (L) (windgrass [20]; 3 weeks after application): 4 (Herbicidal rate of 70% or more and less than 90%)
- effect on southern crabgrass (F) (southern crabgrass [21]; 3 weeks after application): 1 (Herbicidal rate of 5% or more and less than 20%)
- herbicidal effect on E (rice flat sedge), rating 0-5 (rice flat sedge; 320 g/ha): 5 (Herbicidal rate of 90% or more (almost completely withered))
- herbicidal effect rating, F: southern crabgrass (southern crabgrass [22]; 320 g/ha): 0 (Herbicidal rate of 5% or less (almost no effect))
- effect on barnyard grass (H) (barnyard grass [23]; 3 weeks after application): 3 (Herbicidal rate of 40% or more and less than 70%)

SMILES: CCCSc1ccc(-c2sc3ccc(F)cc3c2-c2c(O)c(C)nn(C)c2=O)cc1 [2-248]
- herbicidal effect on D: Chinese sprangletop (Chinese sprangletop; [26]): 5 (Herbicidal rate of 90% or more (almost completely withered))
- herbicidal effect on I: wild oat (criteria 0-5) (wild oat [2]; [27]): 5 (Herbicidal rate of 90% or more (almost completely withered))
- herbicidal effect on K: Italian ryegrass (Italian ryegrass [3]; [26]): 0 (Herbicidal rate of 5% or less (almost no effect))
- herbicidal effect rating, A: late watergrass (late watergrass): 4 (Herbicidal rate of 70% or more and less than 90%)
- herbicidal effect on H: barnyard grass (barnyard grass [4]; [26]): 2 (Herbicidal rate of 20% or more and less than 40%)
- herbicidal effect on L: windgrass (windgrass [5]; [26]): 0 (Herbicidal rate of 5% or less (almost no effect))
- herbicidal effect on I: wild oat (wild oat [6]; [26]): 0 (Herbicidal rate of 5% or less (almost no effect))
- herbicidal effect on R: persian speedwell (persian speedwell [7]; [26]): 4 (Herbicidal rate of 70% or more and less than 90%)
- herbicidal effect on O: lambsquarters (criteria 0-5) (lambsquarters [8]; [27]): 5 (Herbicidal rate of 90% or more (almost completely withered))
- herbicidal effect on H: barnyard grass (barnyard grass [9]; [26]): 5 (Herbicidal rate of 90% or more (almost completely withered))
- herbicidal effect on O: lambsquarters (lambsquarters [10]; [26]): 4 (Herbicidal rate of 70% or more and less than 90%)
- herbicidal effect rating, B: Japanese bulrush (Japanese bulrush): 0 (Herbicidal rate of 5% or less (almost no effect))
- herbicidal effect on K: Italian ryegrass (criteria 0-5) (Italian ryegrass [11]; [27]): 4 (Herbicidal rate of 70% or more and less than 90%)
- herbicidal effect on M: velvetleaf (criteria 0-5) (velvetleaf [12]; [27]): 5 (Herbicidal rate of 90% or more (almost completely withered))
- herbicidal effect on G: green foxtail (criteria 0-5) (green foxtail [13]; [27]): 5 (Herbicidal rate of 90% or more (almost completely withered))
- herbicidal effect on G: green foxtail (green foxtail [14]; [26]): 4 (Herbicidal rate of 70% or more and less than 90%)
- herbicidal effect on N: redroot pigweed (criteria 0-5) (redroot pigweed [24]): 5 (Herbicidal rate of 90% or more (almost completely withered))
- herbicidal effect rating, C: oval-leafed pondweed (oval-leafed pondweed): 0 (Herbicidal rate of 5% or less (almost no effect))
- herbicidal effect on J: blackgrass (blackgrass [15]; [26]): 0 (Herbicidal rate of 5% or less (almost no effect))
- herbicidal effect on R: persian speedwell (criteria 0-5) (persian speedwell [16]; [27]): 5 (Herbicidal rate of 90% or more (almost completely withered))
- herbicidal effect on J: blackgrass (criteria 0-5) (blackgrass [17]; [27]): 4 (Herbicidal rate of 70% or more and less than 90%)
- herbicidal effect on M: velvetleaf (velvetleaf [18]; [26]): 3 (Herbicidal rate of 40% or more and less than 70%)
- herbicidal effect on N: redroot pigweed (redroot pigweed [19]; [26]): 5 (Herbicidal rate of 90% or more (almost completely withered))
- herbicidal effect on L: windgrass (criteria 0-5) (windgrass [20]; [27]): 5 (Herbicidal rate of 90% or more (almost completely withered))
- herbicidal effect on F: southern crabgrass (criteria 0-5) (southern crabgrass [21]; [27]): 5 (Herbicidal rate of 90% or more (almost completely withered))
- herbicidal effect on E: rice flat sedge (rice flat sedge; [26]): 4 (Herbicidal rate of 70% or more and less than 90%)
- herbicidal effect on F: southern crabgrass (southern crabgrass [22]; [26]): 1 (Herbicidal rate of 5% or more and less than 20%)
- herbicidal effect on H: barnyard grass (criteria 0-5) (barnyard grass [23]; [27]): 5 (Herbicidal rate of 90% or more (almost completely withered))
- herbicidal effect on P: chickweed (criteria 0-5) (chickweed [25]): 5 (Herbicidal rate of 90% or more (almost completely withered))
